Assay results from US7265155B2 (NBS Pharmaceuticals, Inc., priority 1996, dated 2007).
Where “and” joins values, the source holds several entries; their conditions need not be identical. Identical values can stand only once. Entries after “also recorded” stand apart in the source; their conditions may differ. Like-named read-outs stand apart in the source and are kept apart here. Marks after values point to notes of the source that are not given here.

Assays:
[1] = test system: chronic spinalized rat; experiment: Spasticity scores elicited by a metal probe in chronic spinally transected rats; assay type: in vivo; settings: 300 mg/kg i.p.
Source text: In these studies, male albino Holtzman-derived rats (Harlan Sprague-Dawley Laboratories) weighing 270-530 grams were used as subjects. The animals were housed independently and had continuous access to food and water throughout the experiments.
All procedures were reviewed and approved by the Institutional Animal Care and Use Committee. Animals were anesthetized using a mixture of isoflurane and oxygen at a flow rate of 4 liters/minute.
The rats were then placed in a stereotaxic frame and anesthesia was maintained. An incision was made so that the paraspinal muscles could be retracted and a laminectomy performed between T6-T9. A one- to two-millimeter portion of the spinal cord was removed by evacuation and replaced with Gel foam to reduce bleeding, after which the incision was closed in layers.
Following the transection, rats were placed in a room in which the ambient temperature was raised to about 80° F. with a space heater to maintain body temperature. On the following morning post-surgery, the hindquarters of the spinalized rats were bathed and their urine expressed manually by applying pressure to their bladders. Experiments were conducted between 21 and 28 days after surgery. For the first two weeks, these rats were given 0.25 ml of the antibiotic Sulfatrim Pediatric Suspension orally to prevent bladder infection.
Within approximately two weeks, all animals regained bladder control and were no longer given antibiotic treatment. Advokat, Brain Res. 684: 8 (1995). […]
Initial assessment of spasticity was performed by the subjective scoring method of rating the resulting spasticity response elicited with an innocuous stimulus, i.e., a metal probe, that was pressed against the lower abdomen at four specific sites. The spastic reaction was evaluated for each of the four trials using a scale ranging from zero (no spastic response in all four trials) to four (a maximum, tonic-clonic reaction elicited in all four trials). […] These raw or normalized scores were analyzed with a one-way repeated measures ANOVA.

[2] = Rotarod motor impairment (toxicity) in the Frings mouse; assay type: in vivo; settings: Frings, mouse, in vivo
Procedure: (§1) The average seizure score can be calculated for each group of mice employed in the dose-response study. At each dose, mice are also tested on a rotarod for testing of motor impairment (toxicity). Testing for motor impairment on the rotarod involves placing a mouse for a three-minute trial period on a one-inch diameter rod rotating at six revolutions per minute. If the mouse falls off of the rotating rod three times within the three-minute time period, it is considered a toxic response.

[3] = test system: Frings mouse; experiment: as above; assay type: in vivo
Procedure: as §1

[4] = test system: Frings audiogenic seizure-susceptible mouse; experiment: Frings audiogenic seizure-susceptible mouse model of epilepsy; assay type: in vivo; settings: for ED50: Mus musculus
Source text: One useful model is provided by the Frings audiogenic seizure-susceptible mouse, a model of reflex epilepsy. At the time of testing, individual mice are placed into a round Plexiglas chamber and exposed to a sound stimulus of 110 decibels, 11 kHz, for 20 seconds. Animals not displaying tonic hindlimb extensions were considered protected. In addition, the seizure score for each mouse can be recorded as: (1) running for less than 10 seconds; (2) running for greater than 10 seconds; (3) clonic activity of limbs and/or vibrissae; (4) forelimb extension/hindlimb flexion; and (5) hindlimb extension.
as §1

[5] = test system: amygdala-kindled rat; experiment: Antiepileptogenic effect during kindling in the amygdala-kindled rat; assay type: in vivo; settings: daily 500 mg/kg p.o.
Procedure: In these studies, groups of adult, male Sprague-Dawley rats weighing at least 230 gr were implanted with a teflon-coated bipolar electrode sterotaxically placed in the anterior basolateral nucleus of the amygdala under ketarine and xylazine anesthesia. The electrode was implanted at the following coordinates with Bregma as zero: AP-2.2 mm, ML-4.7 mm, DV-8.7 mm. Chronic treatment with vehicle (0.5% carboxymethylcellulose, p.o.) or isovaleramide (500 mg/kg, p.o., […] of body weight) was initiated after a seven-day postoperative recovery period. […] After 11 treatment days, all animals were permitted a 7-day drug- and stimulus-free period. […] Seizure score and afterdischarge duration were recorded after each stimulation. Seizure score was classified according to Racine scale (1972): stage 0, no abnormal behavior; stage 1, mouth or facial movements; stage 2, mouth or facial movements and head nodding; stage 3, stage 2 and forelimb clonus; stage 4, stage 3 and rearing; stage 5, stage 4 and falling. A score of 2-3 represents a focal seizure while a score of 4-5 represents secondarily generalized seizures. Afterdischarge duration was the total duration of the amygdala electroencephalogram spikes with an amplitude of at least twice the amplitude of the prestimulus recording and a frequency greater than 1/sec. […]

[6] = cited from earlier work

CC(C)CC(N)=O [Isovaleramide, isovaleramide]
overt behavioral toxicity or motor impairment [1]: No overt behavioral toxicity or motor impairment was observed
reduction of spasticity scores ([1]; 15, 30, 60 and 120 minutes post-administration): 45-65%
spasticity scores by the next day ([1]; 1440 minutes (24 hours)): essentially returned to baseline values
TD50 at 15 min ([2]; ip, 15 minutes, read-out: TD50 for rotarod impairment): 531 mg/kg
TD50 at 15 min ([2]; oral, read-out: TD50): 1010 mg/kg
Number Showing Toxicity of Eight Mice Tested ([3]; 75 mg/kg i.p., 15 minutes): 0
Number Showing Toxicity of Eight Mice Tested ([3]; 112.5 mg/kg i.p., 15 minutes): 0
Number Showing Toxicity of Eight Mice Tested ([3]; 150 mg/kg i.p., 15 minutes): 0
Number Showing Toxicity of Eight Mice Tested ([3]; 300 mg/kg i.p., 15 minutes): 1/8 and 1
Number Showing Toxicity of Eight Mice Tested ([3]; 300 mg/kg oral, tested at 15 minutes): 1
Number Showing Toxicity of Eight Mice Tested ([3]; 600 mg/kg i.p., 15 minutes): 4/8 and 4
Number Showing Toxicity of Eight Mice Tested ([3]; 600 mg/kg oral, tested at 15 minutes): 1
Number Showing Toxicity of Eight Mice Tested ([3]; 1000 mg/kg i.p., 15 minutes): 8/8 and 8
Number Showing Toxicity of Eight Mice Tested ([3]; 1000 mg/kg oral, tested at 15 minutes): 5
Number Showing Toxicity of Eight Mice Tested ([3]; 1500 mg/kg oral, tested at 15 minutes): 5
Number Showing Toxicity of Eight Mice Tested ([3]; 2000 mg/kg oral, tested at 15 minutes, only seven mice tested): 7^d
rotarod performance in the Frings mouse ([3]; doses up to 512 mg/kg i.p. 15 minutes before test): did not affect performance significantly
doses at which behavioral toxicity (inability to maintain balance on the rotarod) was displayed ([3]; i.p.): > 300 mg/kg
doses at which no notable toxicity was observed ([3]; i.p.): less than 300 mg/kg
Number Protected of Eight Mice Tested ([4]; 75 mg/kg i.p., 15 minutes): 1
Seizure Score ± S.E.M. ([4]; 75 mg/kg i.p., 15 minutes): 4.4 ± 0.6
Seizure Score ± S.E.M. ([4]; 100 mg/kg oral): 4.5 ± 0.5
Number Protected of Eight Mice Tested ([4]; 100 mg/kg oral, measured at 30 minutes): 1
Number Protected of Eight Mice Tested ([4]; 112.5 mg/kg i.p., 15 minutes): 2
Seizure Score ± S.E.M. ([4]; 112.5 mg/kg i.p., 15 minutes): 4.0 ± 0.6
Number Protected of Eight Mice Tested ([4]; 150 mg/kg i.p., 15 minutes): 6
Seizure Score ± S.E.M. ([4]; 150 mg/kg i.p., 15 minutes): 2.0 ± 0.6
Seizure Score ± S.E.M. ([4]; 200 mg/kg oral): 2.9 ± 0.8
Number Protected of Eight Mice Tested ([4]; 200 mg/kg oral, measured at 30 minutes): 4
Number Protected of Eight Mice Tested ([4]; 300 mg/kg i.p., 15 minutes): 8
Seizure Score ± S.E.M. ([4]; 300 mg/kg i.p., 15 minutes): 1.0 ± 0
Seizure Score ± S.E.M. ([4]; 300 mg/kg oral): 1.4 ± 0.5
Number Protected of Eight Mice Tested ([4]; 300 mg/kg oral, measured at 30 minutes): 7
Seizure Score ± S.E.M. ([4]; 600 mg/kg oral): 0.25 ± 0.25
Number Protected of Eight Mice Tested ([4]; 600 mg/kg oral, measured at 30 minutes): 8
Seizure Score ± S.E.M. ([4]; 1500 mg/kg oral): 0.6 ± 0.2
Number Protected of Eight Mice Tested ([4]; 1500 mg/kg oral, tested at 4 hours): 8^b
Seizure Score ± S.E.M. ([4]; 2000 mg/kg oral): 0 ± 0
Number Protected of Eight Mice Tested ([4]; 2000 mg/kg oral, tested at 4 hours, only seven mice tested): 7^b,d
ED50 ([4]; ip, 0.25 h, i.p., 15 minutes, read-out: ED50 for protection against tonic extension): 126 mg/kg
ED50 ([4]; oral, read-out: ED50 for protection): 186 mg/kg
time course of anticonvulsant activity ([4]; i.p.): noted as early as 15 minutes, but decreased substantially by two hours
seizure score, dose dependence ([4]; i.p., 15 minutes): dose-dependent reduction in seizure score
anticonvulsant activity when administered orally ([4]; oral): displayed anticonvulsant activity when administered orally
seizure development over time [5]: eventually developed full stage 5 seizures
increases in seizure score and afterdischarge duration during electrical kindling ([5]; 30-minute pretreatment): delayed the increases in both seizure score and afterdischarge duration; also recorded: elicited a delay in the rate of increase in both seizure score and afterdischarge duration
acute toxicity in vivo [6]: low acute toxicity in vivo
